Test results: patent US6005116A, “Isoxazole compounds useful for the prophylaxis or treatment of nervous diseases” (Sankyo Company, Limited, priority 1996, dated 1999)
pIC50: −log10 of the molar value. Structures can show the parent of a compound that is named as a salt.

target: T1, Type A-monoamine oxidase (Mus musculus, UniProt Q64133); test: Type A-monoamine oxidase inhibitory activity; assay type: biochemical; details: not given
T1 sequence (Q64133 1-526): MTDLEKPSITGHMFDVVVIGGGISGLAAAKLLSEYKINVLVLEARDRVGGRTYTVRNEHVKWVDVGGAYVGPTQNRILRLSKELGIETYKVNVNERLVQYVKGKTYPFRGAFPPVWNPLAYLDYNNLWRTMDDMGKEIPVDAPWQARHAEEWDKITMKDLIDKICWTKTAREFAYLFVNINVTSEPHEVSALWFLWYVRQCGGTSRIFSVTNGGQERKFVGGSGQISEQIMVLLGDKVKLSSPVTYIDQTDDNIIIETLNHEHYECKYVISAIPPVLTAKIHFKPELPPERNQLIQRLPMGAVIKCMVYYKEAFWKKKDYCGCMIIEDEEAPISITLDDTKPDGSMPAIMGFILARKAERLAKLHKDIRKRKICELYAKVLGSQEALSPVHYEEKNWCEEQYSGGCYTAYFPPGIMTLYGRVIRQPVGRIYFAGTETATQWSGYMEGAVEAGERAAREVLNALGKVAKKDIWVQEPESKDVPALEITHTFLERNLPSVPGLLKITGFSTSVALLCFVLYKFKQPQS

Compound	pIC50
CC(C)c1c(OCCN)noc1-c1ccc(Cl)cc1Cl [Example 57, 3-(2-Aminoethoxy)-5-(2,4-dichlorophenyl)-4-isopropylisoxazole hydrochloride]	> 7.55

same assay, conditions: mouse brain crude mitochondria; substrate 14C-5-HT 100 μM; preincubated at 38° C. for 20 minutes; phosphate buffer pH 7.4; read-out: IC50 (concentration of the compound which decreases the 14C radioactivity of the control by 50%)

Compound	pIC50
NCCOc1cc(-c2ccccc2)on1 [Example 1, 3-(2-Aminoethoxy)-5-phenylisoxazole hydrochloride]	> 7.55
NCCOc1noc(-c2ccccc2)c1Cl [Example 2, 3-(2-Aminoethoxy)-4-chloro-5-phenylisoxazole hydrochloride]	> 7.55
NCCOc1cc(-c2ccc(Cl)cc2)on1 [Example 3, 3-(2-Aminoethoxy)-5-(4-chlorophenyl)isoxazole hydrochloride]	> 7.55
CC(C)c1c(OCCN)noc1-c1ccccc1 [Example 4, 3-(2-Aminoethoxy)-4-isopropyl-5-phenylisoxazole hydrochloride]	> 7.55
NCCOc1cc(-c2cccs2)on1 [Example 5, 3-(2-Aminoethoxy)-5-(2-thienyl)isoxazole hydrochloride]	> 7.55
NCCOc1noc(-c2cccs2)c1Cl [Example 6, 3-(2-Aminoethoxy)-4-chloro-5-(2-thienyl)isoxazole hydrochloride]	> 7.55
NCCOc1cc(-c2cccnc2)on1 [Example 7, 3-(2-Aminoethoxy)-5-(3-pyridyl)isoxazole hydrochloride]	> 7.55
NCCOc1noc(-c2cccnc2)c1Cl [Example 8, 3-(2-Aminoethoxy)-4-chloro-5-(3-pyridyl)isoxazole hydrochloride]	> 7.55
CC(C)c1c(OCCN)noc1-c1ccco1 [Example 54, 3-(2-Aminoethoxy-5-(2-furyl)-4-isopropylisoxazole hydrochloride]	> 7.55
CC(C)c1c(OCCN)noc1-c1ccccc1Cl [Example 58, 3-(2-Aminoethoxy)-5-(2-chlorophenyl)-4-isopropylisoxazole hydrochloride]	> 7.55
CC(C)c1c(OCCN)noc1-c1ccc(Cl)cc1 [Example 59, 3-(2-Aminoethoxy)-5-(4-chlorophenyl)-4-isopropylisoxazole hydrochloride]	> 7.55
C=CCc1c(OCCN)noc1-c1ccccc1 [Example 60, 4-Allyl-3-(2-aminoethoxy)-5-phenylisoxazole hydrochloride]	> 7.55
CC(C)Cc1c(OCCN)noc1-c1ccccc1 [Example 62, 3-(2-Aminoethoxy)-4-isobutyl-5-phenylisoxazole hydrochloride]	> 7.55
CC(C)c1c(OCCN)noc1-c1cccs1 [Example 67, 3-(2-Aminoethoxy)-4-isopropyl-5-(2-thienyl)isoxazole hydrochloride]	> 7.55
